This is an account of results in patent US20100069400A1, “METHODS FOR TREATING INFLAMMATION AND RELATED CONDITIONS” (Ore Pharmaceuticals Inc., priority 2008, published 2010).

pIC50: −log10 of the molar value.

The term pIC50 denotes the negative decadic logarithm of the IC50, by convention in mol/L.

One assay concerns adrenergic receptor al. The conditions noted are these: compared with its 5-HT2A affinity; cited from earlier work.
The next assay has as its system IL-13. As to the kind of experiment: plasma IL-13 in normal unstimulated rats, bead-based multiplex immunoassay (Luminex). In kind it is in vivo. The note with it: 1 and 5 mg/kg oral twice daily for 7 days, blood approximately 4 hours after last dose. As for the experimental part: (§1) The effects of irindalone were also investigated in normal unstimulated rats that were subject to twice-daily oral dosing with irindalone (1 and 5 mg/kg) for 7 consecutive days. Blood was collected approximately 4 hours after administration of the last dose, plasma was prepared and cytokines were measured using a bead-based multiplex immunoassay (Luminex Corp.).

In the next assay the test system is IL-10. As to the kind of experiment: LPS-induced plasma IL-10, bead-based immunoassay (Luminex). In kind it is in vivo, mice. The conditions noted are these: all time points measured (2, 4, 6, 24 hours post-LPS), most pronounced at 2 and 4 hours; mouse plasma. As for the experimental part: (§2) The intriguing bi-phasic modulation of NF-κB activation described in Example 1 was further investigated by repeating the LPS induction experiment and performing subsequent imaging analysis at 0 hour and 2, 4, 6 and 24 hours post-LPS treatment. Moreover, blood samples were collected at each of the timepoints and plasma was prepared for evaluation of effects of irindalone on quantities of circulating cytokines. […] Specifically, irindalone suppressed LPS-induced pro-inflammatory cytokines eotaxin (FIG. 3A) and TNF-α (FIG. 3B) at the 2-hour time point and IL-1α at both 2 hours and 6 hours post-LPS injection (FIG. 3C).

The target in another assay is histamine H1 receptor (Homo sapiens, UniProt P35367). The conditions noted are these: compared with its 5-HT2A affinity; cited from earlier work.
The subject of a further assay is CXCL1 (GRO/KC). As to the kind of experiment: plasma CXCL1 (GRO/KC) in normal unstimulated rats, bead-based multiplex immunoassay (Luminex). Type of assay: in vivo. The note with it: 1 and 5 mg/kg oral twice daily for 7 days, blood approximately 4 hours after last dose, not dose-proportionately. On the procedure:
as §1

The next assay concerns eotaxin. As to the kind of experiment: LPS-induced plasma eotaxin, bead-based immunoassay (Luminex). Type of assay: in vivo, mice. The note with it: 2-hour time point post-LPS; mouse plasma. As for the experimental part: as §2
The next assay concerns HO-1 promoter. As to the kind of experiment: CdCl2-induced HO-1:LUC promoter activation in HO-1:LUC transgenic mice. In kind it is in vivo. An excerpt: The HO-1 luciferase transgenic mouse line was constructed using 15,000 base pairs of the HO-1 promoter fused to a firefly luciferase reporter. The HO-1 promoter is highly responsive to oxidative stress, hypoxia and other stimuli that influence the oxidative state of the animal. Increased expression of the HO-1 pathway limits tissue damage in response to a wide variety of proinflammatory stimuli associated with oxidative stress including hypoxia, hyperoxia, cytokines, nitric oxide (NO), heavy metals, ultraviolet-A radiation, heat shock, shear stress, hydrogen peroxide, and thiol (—SH)-reactive substances, endotoxin, allograft rejection, etc. This promoter region has several enhancer sequences that confer responsiveness to the wide set of stimuli mentioned above. In this mouse model, luciferase expression is an indicator of the induction of the HO-1 promoter/gene expression. In order to assess the ability of irindalone to modulate the oxidative state of mice stressed with cadmium chloride (CdCl2), male mice (n=5 per group) were dosed with irindalone (0, 1 or 10 mg/kg, p.o.) one hour prior to injection with CdCl2 (2 mg/kg, i.v.). Whole body images were obtained prior to irindalone pretreatment (0 hour) and again at 4, 6, and 24 hours post-CdCl2 treatment. Irindalone suppressed CdCl2-induced luciferase expression (FIG. 6). […] Additional anatomical regions also posted trends in suppression at early time points.

Assay [1] relates to NF-κB. As to the kind of experiment: in vivo imaging of LPS-induced NF-κB:luciferase reporter activation in NF-κB:LUC transgenic mice. The conditions noted are these: for LPS-induced NF-κB reporter (fold change from 0 hour), Example 1: 1 or 10 mg/kg p.o. one hour prior to sLPS 2.5 mg/kg i.v., whole body imaging; for LPS-induced NF-κB activation, Example 2 (FIG. 2): repeat experiment. As for the experimental part: Effects of irindalone on rodent physiological processes were evaluated using bio-photonic in vivo imaging. Specifically, this technology was used to investigate temporal and spatial modulation of physiological processes following acute compound administration. Transgenic mice expressing a firefly luciferase reporter driven by a series of promoters that represent a wide spectrum of potential disease states were used. Light emitted by luciferase in the presence of a luciferin substrate was detected and analyzed using a highly sensitive CCD imaging system. Mice were anesthetized and imaged at the indicated time points followed by visual and quantitative analysis based on counting photons of light emitted from specific regions of interest. Observations were followed by confirmatory and additional heuristic studies, including direct measurement of luciferase activity in harvested tissues and organs. As detailed below, the properties of irindalone were analyzed on three distinct transgenic lines, NF-κB:LUC, AP-1:LUC and HO-1:LUC. For this Example, the NF-κB transgenic mouse line was constructed using three NF-κB response elements fused to a firefly luciferase reporter. The effect of acute compound administration on inflammatory and immunomodulatory processes was monitored using activation of the luciferase reporter as a surrogate readout for activation of NF-κB transcription factor. […] For these studies, male mice (n=5 per group) were administered irindalone (0, 1 or 10 mg/kg, p.o.) one hour prior to injection with soluble lipopolysaccharide (sLPS, 2.5 mg/kg, i.v.). Whole body images were obtained prior to drug pretreatment (0 hour time point) and again at 2, 4, and 6 hours post-LPS treatment. […] The intriguing bi-phasic modulation of NF-κB activation described in Example 1 was further investigated by repeating the LPS induction experiment and performing subsequent imaging analysis at 0 hour and 2, 4, 6 and 24 hours post-LPS treatment. Moreover, blood samples were collected at each of the timepoints and plasma was prepared for evaluation of effects of irindalone on quantities of circulating cytokines.
A general note: In a reporter assay the amount or activity of a reporter protein is the signal.

The next assay concerns AP-1. As to the kind of experiment: TPA-induced AP-1:LUC reporter activation in skin of AP-1:LUC transgenic mice. Type of assay: in vivo. The note with it: irindalone 1 and 10 mg/kg p.o. (dose-dependent) or DEX 4.5 mg/kg i.p. one hour prior to topical TPA 10 μg.
Another assay concerns the target 5-HT2A (Homo sapiens, UniProt P28223). The note with it: cited from earlier work.
The subject of assay [2] is NF-κB. As to the kind of experiment: LPS-induced NF-κB activation in harvested organs and tissues (luciferase/protein assay) of NF-κB:LUC transgenic mice. Type of assay: in vivo. The note with it: 10 mg/kg p.o. one hour prior to LPS 2.5 mg/kg i.v.; 2 hours post-LPS; most pronounced changes in visceral fat, gastrointestinal tract and brain. As for the experimental part:
To determine whether these effects can be localized to a particular tissue or organ system, additional experimentation was performed (similar in design to that as described in Example 1). For these studies, male mice (n=5 per group) were administered irindalone (0 and 10 mg/kg, p.o.) one hour prior to injection with LPS (2.5 mg/kg, i.v.). Whole body images were obtained prior to drug pretreatment (0 hour) and again at 2 hours post-LPS treatment (data not shown). A broad collection of internal tissues and organs were then removed and snap frozen for further analysis. Specifically, harvested tissues were homogenized, cells were lysed and utilized for luciferase and protein quantification assays to obtain relative units of light/μg protein. Results (FIG. 4) illustrate normalized comparisons between LPS alone versus irindalone+LPS.

In another assay the test system is IL-1α. As to the kind of experiment: LPS-induced plasma IL-1α, bead-based immunoassay (Luminex). In kind it is in vivo, mice. The note with it: mouse plasma. On the procedure:
as §2

A further assay deals with TNF-α. As to the kind of experiment: LPS-induced plasma TNF-α, bead-based immunoassay (Luminex). Type of assay: in vivo, mice. The note with it: 2-hour time point post-LPS; mouse plasma. On the procedure:
as §2

Sequence of 5-HT2A (P28223 whole entry, species assumed): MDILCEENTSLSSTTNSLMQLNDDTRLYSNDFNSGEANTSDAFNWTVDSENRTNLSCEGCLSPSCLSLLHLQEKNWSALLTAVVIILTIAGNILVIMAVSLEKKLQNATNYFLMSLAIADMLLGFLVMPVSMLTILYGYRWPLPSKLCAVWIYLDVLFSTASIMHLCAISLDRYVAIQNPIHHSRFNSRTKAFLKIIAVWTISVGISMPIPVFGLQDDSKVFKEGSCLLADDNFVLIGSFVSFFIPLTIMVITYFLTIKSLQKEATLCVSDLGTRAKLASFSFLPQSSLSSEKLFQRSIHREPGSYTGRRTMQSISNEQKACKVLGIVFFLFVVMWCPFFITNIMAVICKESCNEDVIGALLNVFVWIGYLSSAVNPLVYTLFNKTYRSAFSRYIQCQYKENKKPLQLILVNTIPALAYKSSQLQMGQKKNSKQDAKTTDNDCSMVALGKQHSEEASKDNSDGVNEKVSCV
Sequence of histamine H1 receptor (P35367 whole entry, species assumed): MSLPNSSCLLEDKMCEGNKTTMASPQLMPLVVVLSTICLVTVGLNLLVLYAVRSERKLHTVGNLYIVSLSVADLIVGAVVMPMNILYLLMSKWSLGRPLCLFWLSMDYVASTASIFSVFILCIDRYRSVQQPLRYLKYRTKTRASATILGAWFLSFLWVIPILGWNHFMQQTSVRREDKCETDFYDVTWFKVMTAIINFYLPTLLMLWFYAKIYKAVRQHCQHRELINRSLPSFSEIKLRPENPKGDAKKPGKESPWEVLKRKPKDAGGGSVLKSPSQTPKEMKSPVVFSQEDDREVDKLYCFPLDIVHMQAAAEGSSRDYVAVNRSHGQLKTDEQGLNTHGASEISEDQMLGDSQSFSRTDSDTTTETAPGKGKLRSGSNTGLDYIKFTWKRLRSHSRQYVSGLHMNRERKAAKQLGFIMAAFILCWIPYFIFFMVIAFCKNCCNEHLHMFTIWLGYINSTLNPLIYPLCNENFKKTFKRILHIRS
Protocol for AP-1: The AP-1:LUC transgenic line was constructed with four copies of the AP-1 response element fused to a firefly luciferase reporter. […] For the current studies, the backs of mice (n=5 per group) were shaved (area size approximately 1.5×3 cm) and pre-imaged. Mice were administered vehicle (saline), irindalone (dosing at 1 and 10 mg/kg; p.o.) or dexamethasone as a positive control (DEX, 4.5 mg/kg, i.p.) one hour prior to topical application of the phorbol ester 12-O-tetradecanoyl-phorbol-13-acetate (TPA, 0.05 mg/ml in acetone; total dose 10 μg).

Regarding `O=C1NCCN1CCN1CCN([C@@H]2C[C@@H](c3ccc(F)cc3)c3ccccc32)CC1` [Irindalone, (+)-(1R,3S)-1-[2-[4-[3-(p-fluorophenyl)-1-indanyl]-1-piperazinyl]-ethyl]-2-imidazolidinone], in the assay with adrenergic receptor al, the “affinity for adrenergic receptor al, in words” value is given as “somewhat weaker affinity”. For the same compound, the “IL-13 levels in plasma compared to vehicle” value in the assay with IL-13 is “increased”. For the same compound, the “anti-inflammatory cytokine IL-10 level in plasma” value in the assay with IL-10 is “increase”. Also, the “affinity for histamine H1 receptor, in words” value on histamine H1 receptor was “somewhat weaker affinity”. Further, the “CXCL1 (GRO/KC) levels in plasma” value in the assay with CXCL1 (GRO/KC) is given as “lowered”. Also, the “LPS-induced eotaxin level in plasma” value with eotaxin is “suppressed”. Further, the “CdCl2-induced luciferase expression (HO-1 promoter)” value with HO-1 promoter (1 or 10 mg/kg p.o. one hour prior to CdCl2 2 mg/kg i.v., whole body images at 4, 6, 24 hours) was “suppressed”. In the assay on HO-1 promoter (mid back region, all time points (4, 6, 24 hours)), the “CdCl2-induced luciferase expression (HO-1 promoter), mid back region” value was “Dramatic suppression”. Moreover, in the assay on HO-1 promoter (sublingual and lower back regions, earlier time points), the “CdCl2-induced luciferase expression (HO-1 promoter), sublingual and lower back regions” value is “Dramatic suppression”. In addition, the “LPS-induced NF-κB reporter (fold change from 0 hour), Example 1” value with NF-κB [1] (after 2 hours) was “broad suppression”; in the assay with NF-κB [1] (after 6 hours), “broad enhancement”. Besides, the “LPS-induced NF-κB activation, Example 2 (FIG. 2)” value is reported as “suppression” in the assay with NF-κB [1] (early time point (2 hours) post-LPS) and “enhancement” with NF-κB [1] (later time points (4, 6, 24 hours imaged) post-LPS). The “TPA-induced AP-1 activation in skin” value in the assay with AP-1 is listed as “dramatically repressed”. In addition, on 5-HT2A (read-out: affinity (IC50) for 5-HT2A), the pIC50 was 8.47. Further, in the assay with NF-κB [2], the “LPS-induced NF-κB activation in harvested tissues (units of light/μg protein, normalized)” value was “Tissue-Selective Effect”. In addition, the “LPS-induced IL-1α level in plasma” value with IL-1α (2 hours post-LPS injection) and in the assay on IL-1α (6 hours post-LPS injection) was “suppressed” in each case. Also, the “LPS-induced TNF-α level in plasma” value in the assay on TNF-α was “suppressed”.
For the compound `O=C1NCCN1CCN1CCN([C@H]2C[C@H](c3ccc(F)cc3)c3ccccc32)CC1` [Lu 21-099], on 5-HT2A (compared with irindalone), the “5-HT2A affinity, in words” value is “weaker 5-HT2A affinity”.
